# Results from publication PMC7669657 (Nature chemical biology, 2020).
# Assays:
# [1] = biological target: T1, NSD1 SET domain (Homo sapiens, UniProt Q96L73); experiment: MS covalent engagement and kinetics, NSD1 SET; format: binding; settings: 1 μM NSD1 SET, 50 μM compound, 18 h, 32 °C
# T1 sequence (Q96L73 1852-2105): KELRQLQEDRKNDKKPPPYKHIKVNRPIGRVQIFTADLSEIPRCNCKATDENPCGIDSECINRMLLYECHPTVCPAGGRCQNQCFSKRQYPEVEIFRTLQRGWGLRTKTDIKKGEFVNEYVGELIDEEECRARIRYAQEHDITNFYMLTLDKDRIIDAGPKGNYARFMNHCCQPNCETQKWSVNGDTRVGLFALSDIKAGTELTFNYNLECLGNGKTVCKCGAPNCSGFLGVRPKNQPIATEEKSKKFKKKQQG
# [2] = biological target: T2, NSD1 SET domain (Homo sapiens, UniProt Q96L73); format: binding; settings: 150 μM 15N NSD1 SET, 1H-15N HSQC
# T2 sequence (Q96L73 1852-2085): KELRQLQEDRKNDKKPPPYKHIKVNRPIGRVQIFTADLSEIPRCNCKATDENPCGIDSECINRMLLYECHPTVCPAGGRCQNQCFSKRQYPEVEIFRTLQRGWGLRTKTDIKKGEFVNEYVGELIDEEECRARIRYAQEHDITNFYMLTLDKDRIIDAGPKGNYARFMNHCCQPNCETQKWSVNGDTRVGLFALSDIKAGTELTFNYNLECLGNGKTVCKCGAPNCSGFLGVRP
SMILES,covalent binding by MS [1],chemical shift perturbations / binding by NMR [2]
NC(=O)/C=C/c1cc(O)c2nc(N)sc2c1 [Compound 9],lack covalent binding,only weakly interact
COc1cc(Br)cc2sc(N)nc12 [Compound 8],–,less pronounced chemical shift perturbations
